Tests used:
Assay in all cases: KINOMEscan
Assay type in all cases: binding
Conditions in all cases: read-out: % Ctrl
[1] = biological target: T1, ABL1(Q252H)-nonphosphorylated (Homo sapiens, UniProt P00519, Q252H)
T1 construct: purchased DiscoveRx KINOMEscan

[2] = biological target: T2, AMPK-alpha2 (Homo sapiens, UniProt P54646)
T2 construct: purchased DiscoveRx KINOMEscan
How it was run: (§1)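 Competition binding panel of 442 non-mutant kinases: test compound at 5 and 10 μM competed with an active-site-directed ligand for 1 h with shaking. Bound kinase was eluted with 0.5 μM ligand and quantified by qPCR; %Ctrl = (compound − positive control)/(DMSO − positive control) × 100, lower meaning tighter binding.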

[3] = biological target: T3, BRSK2 (Homo sapiens, UniProt Q8IWQ3)
T3 construct: purchased DiscoveRx KINOMEscan
How it was run: as §1

[4] = biological target: T4, CDK9 (Homo sapiens, UniProt P50750)
T4 construct: purchased DiscoveRx KINOMEscan
How it was run: as §1

[5] = biological target: T5, CSNK1G1 (Homo sapiens, UniProt Q9HCP0)
T5 construct: purchased DiscoveRx KINOMEscan
How it was run: as §1

[6] = biological target: T6, DCAMKL1 (Homo sapiens, UniProt O15075)
T6 construct: purchased DiscoveRx KINOMEscan
How it was run: as §1

[7] = biological target: T7, FAK (Homo sapiens, UniProt Q05397)
T7 construct: purchased DiscoveRx KINOMEscan
How it was run: as §1

[8] = biological target: T8, FYN (Homo sapiens, UniProt P06241)
T8 construct: purchased DiscoveRx KINOMEscan
T8 sequence (P06241 whole entry): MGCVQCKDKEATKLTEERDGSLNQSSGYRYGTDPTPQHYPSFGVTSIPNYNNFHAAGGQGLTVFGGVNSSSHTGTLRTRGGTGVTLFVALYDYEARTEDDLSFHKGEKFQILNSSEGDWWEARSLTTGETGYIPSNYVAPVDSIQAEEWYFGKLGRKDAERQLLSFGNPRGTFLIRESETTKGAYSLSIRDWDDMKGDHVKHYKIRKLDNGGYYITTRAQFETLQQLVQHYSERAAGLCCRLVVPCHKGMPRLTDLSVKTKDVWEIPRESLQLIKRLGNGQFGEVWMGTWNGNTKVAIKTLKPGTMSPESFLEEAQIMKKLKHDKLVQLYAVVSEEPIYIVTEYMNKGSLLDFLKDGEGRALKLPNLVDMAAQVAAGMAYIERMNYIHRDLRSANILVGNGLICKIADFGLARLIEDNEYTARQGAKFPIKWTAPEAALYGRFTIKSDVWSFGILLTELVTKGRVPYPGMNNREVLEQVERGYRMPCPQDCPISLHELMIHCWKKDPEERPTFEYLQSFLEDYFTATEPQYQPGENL
How it was run: as §1

[9] = biological target: T9, HIPK3 (Homo sapiens, UniProt Q9H422)
T9 construct: purchased DiscoveRx KINOMEscan
How it was run: as §1

[10] = biological target: T10, IGF1R (Homo sapiens, UniProt P08069)
T10 construct: purchased DiscoveRx KINOMEscan
How it was run: as §1

[11] = biological target: T11, KIT (Homo sapiens, UniProt P10721)
T11 construct: purchased DiscoveRx KINOMEscan
T11 sequence (P10721 26-976): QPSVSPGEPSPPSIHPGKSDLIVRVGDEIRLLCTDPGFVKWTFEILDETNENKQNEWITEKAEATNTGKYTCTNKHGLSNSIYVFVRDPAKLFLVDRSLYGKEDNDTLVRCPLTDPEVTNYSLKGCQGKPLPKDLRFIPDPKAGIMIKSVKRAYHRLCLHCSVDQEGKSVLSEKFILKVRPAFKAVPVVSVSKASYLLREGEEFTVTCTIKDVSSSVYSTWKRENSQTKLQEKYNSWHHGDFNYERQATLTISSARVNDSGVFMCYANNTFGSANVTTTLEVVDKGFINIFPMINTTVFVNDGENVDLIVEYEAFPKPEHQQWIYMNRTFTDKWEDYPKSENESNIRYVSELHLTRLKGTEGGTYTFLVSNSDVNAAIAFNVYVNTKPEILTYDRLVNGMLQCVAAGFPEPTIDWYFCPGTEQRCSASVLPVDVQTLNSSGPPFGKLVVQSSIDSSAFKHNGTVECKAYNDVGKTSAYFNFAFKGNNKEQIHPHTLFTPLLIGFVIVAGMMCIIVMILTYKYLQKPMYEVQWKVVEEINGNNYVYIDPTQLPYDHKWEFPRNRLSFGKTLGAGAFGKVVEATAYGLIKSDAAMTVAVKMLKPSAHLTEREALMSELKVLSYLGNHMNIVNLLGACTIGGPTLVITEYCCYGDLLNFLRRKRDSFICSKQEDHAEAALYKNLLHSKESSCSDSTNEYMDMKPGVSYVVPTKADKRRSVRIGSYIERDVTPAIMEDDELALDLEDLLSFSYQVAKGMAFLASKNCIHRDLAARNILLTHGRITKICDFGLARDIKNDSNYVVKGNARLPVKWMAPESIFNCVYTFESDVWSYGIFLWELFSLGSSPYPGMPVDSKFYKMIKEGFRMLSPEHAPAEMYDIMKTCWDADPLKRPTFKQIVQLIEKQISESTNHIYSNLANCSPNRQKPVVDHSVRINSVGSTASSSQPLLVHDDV
How it was run: as §1

[12] = biological target: T12, LATS1 (Homo sapiens, UniProt O95835)
T12 construct: purchased DiscoveRx KINOMEscan
How it was run: as §1

[13] = biological target: T13, LCK (Homo sapiens, UniProt P06239)
T13 construct: purchased DiscoveRx KINOMEscan
T13 sequence (P06239 whole entry): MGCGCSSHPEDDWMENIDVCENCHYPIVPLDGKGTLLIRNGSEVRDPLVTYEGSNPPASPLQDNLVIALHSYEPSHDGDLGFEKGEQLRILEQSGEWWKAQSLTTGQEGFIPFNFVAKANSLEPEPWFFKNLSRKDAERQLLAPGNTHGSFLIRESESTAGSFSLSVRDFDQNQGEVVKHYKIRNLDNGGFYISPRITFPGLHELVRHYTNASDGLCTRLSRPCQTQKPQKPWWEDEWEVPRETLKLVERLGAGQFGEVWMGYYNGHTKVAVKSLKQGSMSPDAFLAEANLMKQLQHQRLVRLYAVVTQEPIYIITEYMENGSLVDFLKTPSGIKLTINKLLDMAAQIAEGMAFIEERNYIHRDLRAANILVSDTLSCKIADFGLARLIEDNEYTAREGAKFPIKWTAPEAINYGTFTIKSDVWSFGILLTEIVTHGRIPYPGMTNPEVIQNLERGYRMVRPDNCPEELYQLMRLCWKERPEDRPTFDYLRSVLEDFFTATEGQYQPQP
How it was run: as §1

[14] = biological target: T14, LKB1 (Homo sapiens, UniProt Q15831)
T14 construct: purchased DiscoveRx KINOMEscan
T14 sequence (Q15831 whole entry): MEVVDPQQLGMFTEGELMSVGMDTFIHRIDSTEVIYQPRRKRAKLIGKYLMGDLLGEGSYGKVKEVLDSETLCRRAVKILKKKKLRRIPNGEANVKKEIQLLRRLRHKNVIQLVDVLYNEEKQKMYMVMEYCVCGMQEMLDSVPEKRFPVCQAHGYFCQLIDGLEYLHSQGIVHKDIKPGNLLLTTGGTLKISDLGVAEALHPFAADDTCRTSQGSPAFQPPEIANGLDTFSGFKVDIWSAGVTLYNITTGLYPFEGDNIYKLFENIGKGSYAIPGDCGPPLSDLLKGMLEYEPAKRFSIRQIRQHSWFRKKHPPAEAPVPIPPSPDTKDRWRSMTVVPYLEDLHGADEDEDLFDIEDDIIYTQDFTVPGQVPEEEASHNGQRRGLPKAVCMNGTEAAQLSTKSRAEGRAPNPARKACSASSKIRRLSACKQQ
How it was run: as §1

[15] = biological target: T15, LOK (Homo sapiens, UniProt O94804)
T15 construct: purchased DiscoveRx KINOMEscan
How it was run: as §1

[16] = biological target: T16, MAP3K1 (Homo sapiens, UniProt Q13233)
T16 construct: purchased DiscoveRx KINOMEscan
How it was run: as §1

[17] = biological target: T17, MEK5 (Homo sapiens, UniProt Q13163)
T17 construct: purchased DiscoveRx KINOMEscan
How it was run: as §1

[18] = biological target: T18, MERTK (Homo sapiens, UniProt Q12866)
T18 construct: purchased DiscoveRx KINOMEscan
How it was run: as §1

[19] = biological target: T19, MYLK4 (Homo sapiens, UniProt Q86YV6)
T19 construct: purchased DiscoveRx KINOMEscan
T19 sequence (Q86YV6 whole entry): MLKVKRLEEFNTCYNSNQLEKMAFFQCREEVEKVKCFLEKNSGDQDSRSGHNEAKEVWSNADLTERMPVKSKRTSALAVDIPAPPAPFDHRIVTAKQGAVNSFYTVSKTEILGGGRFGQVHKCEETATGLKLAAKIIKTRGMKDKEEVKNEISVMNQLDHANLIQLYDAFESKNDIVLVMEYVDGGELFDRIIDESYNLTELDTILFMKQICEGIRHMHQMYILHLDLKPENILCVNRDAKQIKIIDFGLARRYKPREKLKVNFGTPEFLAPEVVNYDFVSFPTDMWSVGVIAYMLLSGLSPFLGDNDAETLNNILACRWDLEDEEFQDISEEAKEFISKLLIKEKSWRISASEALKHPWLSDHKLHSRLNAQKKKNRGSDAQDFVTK
How it was run: as §1

[20] = biological target: T20, PDPK1 (Homo sapiens, UniProt O15530)
T20 construct: purchased DiscoveRx KINOMEscan
How it was run: as §1

[21] = biological target: T21, PIK3CA(E545K) (Homo sapiens, UniProt P42336, E545K)
T21 construct: purchased DiscoveRx KINOMEscan

[22] = biological target: T22, PIP5K2C (Homo sapiens, UniProt Q8TBX8)
T22 construct: purchased DiscoveRx KINOMEscan
How it was run: as §1

[23] = biological target: T23, RIPK1 (Homo sapiens, UniProt Q13546)
T23 construct: purchased DiscoveRx KINOMEscan
How it was run: as §1

[24] = biological target: T24, RIPK2 (Homo sapiens, UniProt O43353)
T24 construct: purchased DiscoveRx KINOMEscan
T24 sequence (O43353 whole entry): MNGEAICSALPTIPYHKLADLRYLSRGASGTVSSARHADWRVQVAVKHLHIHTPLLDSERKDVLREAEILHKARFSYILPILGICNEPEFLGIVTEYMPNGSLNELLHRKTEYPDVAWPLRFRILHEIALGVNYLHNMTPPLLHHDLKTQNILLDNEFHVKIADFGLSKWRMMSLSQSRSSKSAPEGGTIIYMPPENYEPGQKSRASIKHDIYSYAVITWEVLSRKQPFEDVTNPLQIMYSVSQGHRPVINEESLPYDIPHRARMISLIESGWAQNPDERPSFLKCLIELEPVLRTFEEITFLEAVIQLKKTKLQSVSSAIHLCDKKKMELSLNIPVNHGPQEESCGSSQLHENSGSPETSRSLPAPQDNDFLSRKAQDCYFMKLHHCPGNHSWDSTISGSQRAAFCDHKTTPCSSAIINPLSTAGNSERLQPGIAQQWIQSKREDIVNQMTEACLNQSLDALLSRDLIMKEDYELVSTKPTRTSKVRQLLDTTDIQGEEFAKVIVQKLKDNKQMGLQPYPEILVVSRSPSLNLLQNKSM
How it was run: as §1

[25] = biological target: T25, RSK2(Kin.Dom.1-N-terminal) (Homo sapiens, UniProt P51812)
T25 construct: RSK2(Kin.Dom.1-N-terminal); purchased DiscoveRx KINOMEscan
T25 sequence (P51812 1-397 limits assumed): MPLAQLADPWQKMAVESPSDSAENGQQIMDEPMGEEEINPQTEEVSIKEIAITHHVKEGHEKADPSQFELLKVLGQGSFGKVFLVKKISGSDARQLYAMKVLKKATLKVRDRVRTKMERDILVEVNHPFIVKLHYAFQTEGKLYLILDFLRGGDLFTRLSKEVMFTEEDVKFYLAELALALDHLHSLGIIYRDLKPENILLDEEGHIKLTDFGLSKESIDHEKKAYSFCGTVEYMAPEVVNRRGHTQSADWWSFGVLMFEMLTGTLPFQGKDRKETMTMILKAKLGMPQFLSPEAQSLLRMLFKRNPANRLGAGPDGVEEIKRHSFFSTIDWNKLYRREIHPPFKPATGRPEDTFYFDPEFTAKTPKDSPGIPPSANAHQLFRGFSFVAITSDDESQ
How it was run: as §1

[26] = biological target: T26, SIK2 (Homo sapiens, UniProt Q9H0K1)
T26 construct: purchased DiscoveRx KINOMEscan
How it was run: as §1

[27] = biological target: T27, SRPK2 (Homo sapiens, UniProt P78362)
T27 construct: purchased DiscoveRx KINOMEscan
T27 sequence (P78362 whole entry): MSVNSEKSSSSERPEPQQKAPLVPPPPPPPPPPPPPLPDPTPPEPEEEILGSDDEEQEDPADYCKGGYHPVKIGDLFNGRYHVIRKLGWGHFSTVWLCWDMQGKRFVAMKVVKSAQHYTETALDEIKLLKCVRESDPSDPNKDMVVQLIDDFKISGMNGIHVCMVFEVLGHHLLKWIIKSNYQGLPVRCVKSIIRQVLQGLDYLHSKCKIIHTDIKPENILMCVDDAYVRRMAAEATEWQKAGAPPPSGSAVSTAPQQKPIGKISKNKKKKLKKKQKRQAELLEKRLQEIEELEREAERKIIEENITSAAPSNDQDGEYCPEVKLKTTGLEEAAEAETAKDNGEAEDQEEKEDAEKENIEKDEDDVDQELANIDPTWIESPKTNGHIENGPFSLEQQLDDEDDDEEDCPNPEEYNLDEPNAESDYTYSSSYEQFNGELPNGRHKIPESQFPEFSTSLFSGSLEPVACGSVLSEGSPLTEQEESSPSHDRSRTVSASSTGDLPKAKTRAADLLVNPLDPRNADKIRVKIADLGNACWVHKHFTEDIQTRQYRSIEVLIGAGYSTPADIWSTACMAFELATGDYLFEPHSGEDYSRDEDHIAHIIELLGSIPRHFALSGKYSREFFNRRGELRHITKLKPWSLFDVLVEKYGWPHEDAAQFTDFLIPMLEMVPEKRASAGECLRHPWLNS
How it was run: as §1

[28] = biological target: T28, SRPK3 (Homo sapiens, UniProt Q9UPE1)
T28 construct: purchased DiscoveRx KINOMEscan
T28 sequence (Q9UPE1 whole entry): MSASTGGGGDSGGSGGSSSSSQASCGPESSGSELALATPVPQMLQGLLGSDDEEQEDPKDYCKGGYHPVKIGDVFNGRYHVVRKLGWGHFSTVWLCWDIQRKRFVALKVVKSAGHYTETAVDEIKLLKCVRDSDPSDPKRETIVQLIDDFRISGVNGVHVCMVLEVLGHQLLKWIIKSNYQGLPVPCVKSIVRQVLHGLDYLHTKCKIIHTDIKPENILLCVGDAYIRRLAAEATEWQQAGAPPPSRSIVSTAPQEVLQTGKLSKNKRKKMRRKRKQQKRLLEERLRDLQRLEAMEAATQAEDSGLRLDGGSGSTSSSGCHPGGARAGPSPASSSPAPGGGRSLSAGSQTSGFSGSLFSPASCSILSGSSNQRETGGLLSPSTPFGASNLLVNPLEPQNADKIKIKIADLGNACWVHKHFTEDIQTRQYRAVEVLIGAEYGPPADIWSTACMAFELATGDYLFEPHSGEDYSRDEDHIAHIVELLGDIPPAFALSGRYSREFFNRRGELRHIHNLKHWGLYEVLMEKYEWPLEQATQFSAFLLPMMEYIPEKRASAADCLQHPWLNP
How it was run: as §1

[29] = biological target: T29, YANK3 (Homo sapiens, UniProt Q86UX6)
T29 construct: purchased DiscoveRx KINOMEscan
How it was run: as §1

[30] = biological target: T30, p38-beta (Homo sapiens, UniProt Q15759)
T30 construct: purchased DiscoveRx KINOMEscan
How it was run: as §1

Compound `Cc1ccc(C2=Nc3cccnc3S(=O)(=O)c3ccccc32)cc1` [TBPT, 6-(p-tolyl)benzo[f] pyrido[2,3-b][1,4] thiazepine 11,11-dioxide] has a remaining binding at 5 µM ([1]; 5 μM) of 79%, a remaining binding at 10 µM ([1]; 10 μM) of 100% and a remaining binding at 5 µM ([2]; 5 μM) of 81%. For the same compound, the remaining binding at 10 µM ([2]; 10 μM) was 95%, the remaining binding at 5 µM ([3]; 5 μM) was 100% and the remaining binding at 10 µM ([3]; 10 μM) was 100%. It also gave a remaining binding at 5 µM ([4]; 5 μM) of 100%, a remaining binding at 10 µM ([4]; 10 μM) of 100% and a remaining binding at 5 µM ([5]; 5 μM) of 100%. The remaining binding at 10 µM ([5]; 10 μM) was 89%, the remaining binding at 5 µM ([6]; 5 μM) was 100% and the remaining binding at 10 µM ([6]; 10 μM) was 89%. For the same compound, the remaining binding at 5 µM ([7]; 5 μM) was 92%, the remaining binding at 10 µM ([7]; 10 μM) was 92% and the remaining binding at 5 µM ([8]; 5 μM) was 85%. It also gave a remaining binding at 10 µM ([8]; 10 μM) of 95%, a remaining binding at 5 µM ([9]; 5 μM) of 100% and a remaining binding at 10 µM ([9]; 10 μM) of 100%. The remaining binding at 5 µM ([10]; 5 μM) was 100%, the remaining binding at 10 µM ([10]; 10 μM) was 79% and the remaining binding at 5 µM ([11]; 5 μM) was 72%. For the same compound, the remaining binding at 10 µM ([11]; 10 μM) was 100%, the remaining binding at 5 µM ([12]; 5 μM) was 100% and the remaining binding at 10 µM ([12]; 10 μM) was 100%. It also gave a remaining binding at 5 µM ([13]; 5 μM) of 97%, a remaining binding at 10 µM ([13]; 10 μM) of 100% and a remaining binding at 5 µM ([14]; 5 μM) of 100%. The remaining binding at 10 µM ([14]; 10 μM) was 89%, the remaining binding at 5 µM ([15]; 5 μM) was 100% and the remaining binding at 10 µM ([15]; 10 μM) was 92%. The remaining binding at 5 µM ([16]; 5 μM) was 100%, the remaining binding at 10 µM ([16]; 10 μM) was 100% and the remaining binding at 5 µM ([17]; 5 μM) was 100%. The remaining binding at 10 µM ([17]; 10 μM) was 95%, the remaining binding at 5 µM ([18]; 5 μM) was 100% and the remaining binding at 10 µM ([18]; 10 μM) was 80%. The remaining binding at 5 µM ([19]; 5 μM) was 94%, the remaining binding at 10 µM ([19]; 10 μM) was 99% and the remaining binding at 5 µM ([20]; 5 μM) was 100%. It also gave a remaining binding at 10 µM ([20]; 10 μM) of 100%, a remaining binding at 5 µM ([21]; 5 μM) of 81% and a remaining binding at 10 µM ([21]; 10 μM) of 100%. The remaining binding at 5 µM ([22]; 5 μM) was 100%, the remaining binding at 10 µM ([22]; 10 μM) was 100% and the remaining binding at 5 µM ([23]; 5 μM) was 100%. It also gave a remaining binding at 10 µM ([23]; 10 μM) of 100%, a remaining binding at 5 µM ([24]; 5 μM) of 92% and a remaining binding at 10 µM ([24]; 10 μM) of 97%. The remaining binding at 5 µM ([25]; 5 μM) was 98%, the remaining binding at 10 µM ([25]; 10 μM) was 100% and the remaining binding at 5 µM ([26]; 5 μM) was 84%. It also gave a remaining binding at 10 µM ([26]; 10 μM) of 90%, a remaining binding at 5 µM ([27]; 5 μM) of 96% and a remaining binding at 10 µM ([27]; 10 μM) of 78%. It also gave a remaining binding at 5 µM ([28]; 5 μM) of 100%, a remaining binding at 10 µM ([28]; 10 μM) of 89% and a remaining binding at 5 µM ([29]; 5 μM) of 88%. For the same compound, the remaining binding at 10 µM ([29]; 10 μM) was 96%, the remaining binding at 5 µM ([30]; 5 μM) was 100% and the remaining binding at 10 µM ([30]; 10 μM) was 76%.

Source: article PMC4823954, “From fighting depression to conquering tumors: a novel tricyclic thiazepine compound as a tubulin polymerization inhibitor” (Cell Death & Disease, 2016)
